Reference: patent US20100292205A1, “Pyrimidone Compounds As GSK-3 Inhibitors” (PFIZER INC., priority 2006, published 2010)

Biological target: T1, Recombinant human GSK3β (Homo sapiens, UniProt P49841)
T1 construct: His-tag; made in house; host or cells: Sf9 insect cells / baculovirus
Test: GSK-3β (Glycogen Synthase Kinase) cell free enzyme assay
Type: biochemical
Conditions: cell free enzyme assay; Examples 62-155
In short: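 Recombinant human GSK3β, expressed in SF9/baculovirus cells and His-tag purified on Ni-NTA Superflow, was preincubated with test agent for 30 minutes at room temperature. Substrate mix was then added to start the reaction in 8 mM MOPS (pH 7.0), 10 mM magnesium acetate, 0.2 mM EDTA, 1 mM DTT, 2 uM cold ATP, 0.025 uCi/well [33P]ATP (120 uL) and 1.0 uM biotinylated peptide. Reactions ran at RT for 60 min.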

T1 sequence (P49841 whole entry): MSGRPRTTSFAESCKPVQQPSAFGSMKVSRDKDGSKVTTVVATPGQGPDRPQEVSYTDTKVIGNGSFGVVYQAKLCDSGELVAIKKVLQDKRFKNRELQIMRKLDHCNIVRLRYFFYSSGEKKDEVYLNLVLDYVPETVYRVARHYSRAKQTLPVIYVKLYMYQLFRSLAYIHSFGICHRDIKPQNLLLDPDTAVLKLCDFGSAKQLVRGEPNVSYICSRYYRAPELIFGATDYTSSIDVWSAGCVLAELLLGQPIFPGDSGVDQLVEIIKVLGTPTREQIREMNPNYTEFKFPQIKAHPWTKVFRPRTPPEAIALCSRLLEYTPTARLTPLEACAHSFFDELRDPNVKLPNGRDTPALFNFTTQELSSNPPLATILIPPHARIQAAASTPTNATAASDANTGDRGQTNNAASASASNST

SMILES | IC50 [nM]
CCCC(=O)N1C[C@@H]2[C@H](C1)[C@H]2N(C)c1nc(-c2ccncc2F)cc(=O)n1C [Example 138, 2-{[(1R,5S,6s)-3-Butyryl-3-azabicyclo[3.1.0]hex-6-yl](methyl)amino}-6-(3-fluoropyridin-4-yl)-3-methylpyrimidin-4(3H)-one] | 13.8
CN(c1nc(-c2ccncc2F)cc(=O)n1C)[C@H]1[C@@H]2CN(C(=O)c3ccc(F)cc3)C[C@@H]21 [Example 139, 2-{[(1R,5S,6s)-3-(4-Fluorobenzoyl)-3-azabicyclo[3.1.0]hex-6-yl](methyl)amino}-6-(3-fluoropyridin-4-yl)-3-methylpyrimidin-4(3H)-one] | 5.67
CN(c1nc(-c2ccncc2F)cc(=O)n1C)[C@H]1[C@@H]2CN(C(=O)C3CC=CCC3)C[C@@H]21 (stereo partly drawn) [Example 140, 2-{[(1R,5S,6s)-3-(Cyclohex-3-en-1-ylcarbonyl)-3-azabicyclo[3.1.0]hex-6-yl](methyl)amino}-6-(3-fluoropyridin-4-yl)-3-methylpyrimidin-4(3H)-one] | 8.72
CN(c1nc(-c2ccncc2F)cc(=O)n1C)[C@H]1[C@@H]2CN(C(=O)c3cc(Cl)sc3Cl)C[C@@H]21 [Example 141, 2-[{(1R,5S,6s)-3-[(2,5-Dichloro-3-thienyl)carbonyl]-3-azabicyclo[3.1.0]hex-6-yl}(methyl)amino]-6-(3-fluoropyridin-4-yl)-3-methylpyrimidin-4(3H)-one] | 1.04
Cc1ccc(C(=O)N2C[C@@H]3[C@H](C2)[C@H]3N(C)c2nc(-c3ccncc3F)cc(=O)n2C)cc1 [Example 142, 6-(3-Fluoropyridin-4-yl)-3-methyl-2-{methyl[(1R,5S,6s)-3-(4-methylbenzoyl)-3-azabicyclo[3.1.0]hex-6-yl]amino}pyrimidin-4(3H)-one] | 3.51
COC(=O)CCCC(=O)N1C[C@@H]2[C@H](C1)[C@H]2N(C)c1nc(-c2ccncc2F)cc(=O)n1C [Example 143, Methyl 5-[(1R,5S,6s)-6-{[4-(3-fluoropyridin-4-yl)-1-methyl-6-oxo-1,6-dihydropyrimidin-2-yl](methyl)amino}-3-azabicyclo[3.1.0]hex-3-yl]-5-oxopentanoate] | 57.4
CN(c1nc(-c2ccncc2F)cc(=O)n1C)[C@H]1[C@@H]2CN(C(=O)c3cc(F)cc(F)c3)C[C@@H]21 [Example 144, 2-{[(1R,5S,6s)-3-(3,5-Difluorobenzoyl)-3-azabicyclo[3.1.0]hex-6-yl](methyl)amino}-6-(3-fluoropyridin-4-yl)-3-methylpyrimidin-4(3H)-one] | 4.09
CC[C@@H](Oc1ccccc1)C(=O)N1C[C@@H]2[C@H](C1)[C@H]2N(C)c1nc(-c2ccncc2F)cc(=O)n1C [Example 145, 6-(3-Fluoropyridin-4-yl)-3-methyl-2-{methyl[(1R,5S,6s)-3-(2-phenoxybutanoyl)-3-azabicyclo[3.1.0]hex-6-yl]amino}pyrimidin-4(3H)-one] | 13.2
CN(c1nc(-c2ccncc2F)cc(=O)n1C)[C@H]1[C@@H]2CN(C(=O)Cc3cccs3)C[C@@H]21 [Example 146, 6-(3-Fluoropyridin-4-yl)-3-methyl-2-{methyl[(1R,5S,6s)-3-(2-thienylacetyl)-3-azabicyclo[3.1.0]hex-6-yl]amino}pyrimidin-4(3H)-one] | 6.16
Cc1cc(C(=O)N2C[C@@H]3[C@H](C2)[C@H]3N(C)c2nc(-c3ccncc3F)cc(=O)n2C)c(C)o1 [Example 147, 2-{[(1R,5S,6s)-3-(2,5-Dimethyl-3-furoyl)-3-azabicyclo[3.1.0]hex-6-yl](methyl)amino}-6-(3-fluoropyridin-4-yl)-3-methylpyrimidin-4(3H)-one] | 3.7
CN(c1nc(-c2ccncc2F)cc(=O)n1C)[C@H]1[C@@H]2CN(C(=O)c3ccncc3Cl)C[C@@H]21 [Example 148, 2-{[(1R,5S,6s)-3-(3-Chloroisonicotinoyl)-3-azabicyclo[3.1.0]hex-6-yl](methyl)amino}-6-(3-fluoropyridin-4-yl)-3-methylpyrimidin-4(3H)-one] | 36.1
